Test results as given in patent publication US5789431A, “Naphthoquinone antitumor compound and method” (The University of North Carolina at Chapel Hill, priority 1996, dated 1998).
Like-named read-outs stand apart in the source and are kept apart here.

Tests used:
COLO-205 = test: in vitro colon cancer cell growth inhibition (NCI screen)
CCRF-CEM [1] = conditions: human, ccrf-cem cells
SNB-75 = test: in vitro CNS cancer cell growth inhibition (NCI screen)
HCT-116 = test: in vitro colon cancer cell growth inhibition (NCI screen)
SK-MEL-5 = test: in vitro melanoma cell growth inhibition (NCI screen)
K-562 [2] = conditions: human, k-562 cells
UACC-257 = test: in vitro melanoma cell growth inhibition (NCI screen)
SW 620 = test: in vitro colon cancer cell growth inhibition (NCI screen)
T-47D = test: in vitro breast cancer cell growth inhibition (NCI screen)
NCI-H23 = test: in vitro non-small cell lung cancer cell growth inhibition (NCI screen)
MDA-MB-435 = test: in vitro breast cancer cell growth inhibition (NCI screen)
HT 29 = test: in vitro colon cancer cell growth inhibition (NCI screen)
MOLT-4 [3] = conditions: human, molt-4 cells
PC-3 = test: in vitro prostate cancer cell growth inhibition (NCI screen)
OVCAR-8 = test: in vitro ovarian cancer cell growth inhibition (NCI screen)
UACC-62 = test: in vitro melanoma cell growth inhibition (NCI screen)
NCI-H522 = test: in vitro non-small cell lung cancer cell growth inhibition (NCI screen)
MALME-3M = test: in vitro melanoma cell growth inhibition (NCI screen)
MDA-N = test: in vitro breast cancer cell growth inhibition (NCI screen)
M14 = test: in vitro melanoma cell growth inhibition (NCI screen)
RPMI-8226 = test: in vitro leukemia cell growth inhibition (NCI screen)
SF-268 = test: in vitro CNS cancer cell growth inhibition (NCI screen)
OVCAR-3 = test: in vitro ovarian cancer cell growth inhibition (NCI screen)
MCF-7 = test: in vitro breast cancer cell growth inhibition (NCI screen)
HL-60(TB) = test: in vitro leukemia cell growth inhibition (NCI screen)
EKVX = test: in vitro non-small cell lung cancer cell growth inhibition (NCI screen)
SK-MEL-2 = test: in vitro melanoma cell growth inhibition (NCI screen)
CCRF-CEM [4] = test: in vitro leukemia cell growth inhibition (NCI screen)
SF-295 = test: in vitro CNS cancer cell growth inhibition (NCI screen)
OVCAR-4 = test: in vitro ovarian cancer cell growth inhibition (NCI screen); conditions: OVACR-4
HCT-15 = test: in vitro colon cancer cell growth inhibition (NCI screen)
UO-31 = test: in vitro renal cancer cell growth inhibition (NCI screen)
RXF-393 = test: as above
SK-MEL-28 = test: in vitro melanoma cell growth inhibition (NCI screen)
TK-10 = test: in vitro renal cancer cell growth inhibition (NCI screen)
NCI-H266 = test: in vitro non-small cell lung cancer cell growth inhibition (NCI screen)
HOP-18 = test: as above
SF-539 = test: in vitro CNS cancer cell growth inhibition (NCI screen)
KM 20L2 = test: in vitro colon cancer cell growth inhibition (NCI screen)
786-0 = test: in vitro renal cancer cell growth inhibition (NCI screen)
LXFL 529 = test: in vitro non-small cell lung cancer cell growth inhibition (NCI screen)
DLD-1 = test: in vitro colon cancer cell growth inhibition (NCI screen)
K-562 [5] = test: in vitro leukemia cell growth inhibition (NCI screen)
LOX1MVI = test: in vitro melanoma cell growth inhibition (NCI screen)
XF-498 = test: in vitro CNS cancer cell growth inhibition (NCI screen)
M19-MEL = test: in vitro melanoma cell growth inhibition (NCI screen)
CAKI-1 = test: in vitro renal cancer cell growth inhibition (NCI screen)
HOP-92 = test: in vitro non-small cell lung cancer cell growth inhibition (NCI screen)
SN12C = test: in vitro renal cancer cell growth inhibition (NCI screen)
NCI-H460 = test: in vitro non-small cell lung cancer cell growth inhibition (NCI screen)
human tumor cell lines = assay type: cell-based; conditions: Homo sapiens; non-small cell lung, CNS, melanoma, colon, leukemia, small cell lung, and renal cancer cell lines; read-out: logGI50 values (range over cell lines) (converted)
MOLT-4 [6] = test: in vitro leukemia cell growth inhibition (NCI screen)
SR = test: as above
SNB-78 = test: in vitro CNS cancer cell growth inhibition (NCI screen)
U 251 = test: as above

Row | SMILES | cytotoxicity log GI50 (SNB-75) [M] | cytotoxicity log GI50 (HCT-116) [M] | cytotoxicity log GI50 (UACC-257) [M] | cytotoxicity log GI50 (SW 620) [M] | cytotoxicity log GI50 (NCI-H23) [M] | cytotoxicity log GI50 (UACC-62) [M] | cytotoxicity log GI50 (NCI-H522) [M] | cytotoxicity log GI50 (MALME-3M) [M] | cytotoxicity log GI50 (M14) [M] | cytotoxicity log GI50 (SF-268) [M] | cytotoxicity log GI50 (OVCAR-3) [M] | cytotoxicity log GI50 (HL-60(TB)) [M] | cytotoxicity log GI50 (CCRF-CEM [4]) [M] | cytotoxicity log GI50 (HCT-15) [M] | cytotoxicity log GI50 (SF-539) [M] | cytotoxicity log GI50 (786-0) [M] | cytotoxicity log GI50 (LXFL 529) [M] | cytotoxicity log GI50 (DLD-1) [M] | cytotoxicity log GI50 (K-562 [5]) [M] | cytotoxicity log GI50 (LOX1MVI) [M] | other results
1 | CC(=O)NC1=C(NCCCl)C(=O)c2ccccc2C1=O [Compound 43] | -4.61 | -4.69 | -4.82 | -4.60 | -4.58 | -4.70 | -4.69 | -4.86 | -4.89 | – | – | – | – | – | – | – | – | – | – | – | cytotoxicity log GI50 (COLO-205): -4.55 M; cytotoxicity log GI50 (CCRF-CEM [1]): -4.72 M; cytotoxicity log GI50 (SK-MEL-5): -4.77 M; cytotoxicity log GI50 (K-562 [2]): -4.55 M; cytotoxicity log GI50 (T-47D): -4.60 M; cytotoxicity log GI50 (MDA-MB-435): -4.78 M; cytotoxicity log GI50 (HT 29): -4.58 M; cytotoxicity log GI50 (MOLT-4 [3]): -4.60 M; cytotoxicity log GI50 (PC-3): -4.65 M; cytotoxicity log GI50 (OVCAR-8): -4.70 M; cytotoxicity log GI50 (MDA-N): -4.67 M
2 | O=C(O)CCCc1nc2c(n1Cc1ccccc1)C(=O)c1ccccc1C2=O [Compound 57] | – | -4.54 | -4.60 | – | -4.50 | -4.76 | -4.53 | -4.80 | -5.43 | -4.58 | -4.67 | -4.54 | -5.28 | – | – | – | – | – | – | – | cytotoxicity log GI50 (RPMI-8226): -4.73 M; cytotoxicity log GI50 (MCF-7): -4.53 M; cytotoxicity log GI50 (EKVX): -4.50 M; cytotoxicity log GI50 (SK-MEL-2): -4.83 M; cytotoxicity log GI50 (MDA-N): -4.65 M; cytotoxicity log GI50 (SF-295): -4.59 M; cytotoxicity log GI50 (OVCAR-4): -4.69 M
3 | CC(=O)NC1=C(NCC(C)C)C(=O)c2ccccc2C1=O [Compound 31] | -4.77 | -4.69 | -4.73 | -4.68 | -4.70 | -4.74 | – | -4.72 | -4.74 | -4.69 | -4.78 | -5.56 | -5.14 | -4.75 | -4.76 | -4.84 | -4.79 | -4.72 | -4.81 | -4.81 | cytotoxicity log GI50 (UO-31): -4.74 M; cytotoxicity log GI50 (SK-MEL-5): -4.70 M; cytotoxicity log GI50 (RXF-393): -4.90 M; cytotoxicity log GI50 (SK-MEL-28): -4.77 M; cytotoxicity log GI50 (TK-10): -4.68 M; cytotoxicity log GI50 (NCI-H266): -4.80 M; cytotoxicity log GI50 (HOP-18): -4.89 M; cytotoxicity log GI50 (KM 20L2): -4.67 M; cytotoxicity log GI50 (XF-498): -4.85 M; cytotoxicity log GI50 (M19-MEL): -4.73 M; cytotoxicity log GI50 (CAKI-1): -4.78 M; cytotoxicity log GI50 (HOP-92): -4.85 M; cytotoxicity log GI50 (SN12C): -4.77 M
4 | Cc1nc2c(n1Cc1ccc(Cl)cc1)C(=O)c1ccccc1C2=O [Compound 20] | – | -5.59 | – | – | – | -5.47 | -5.26 | – | – | -5.29 | – | -5.36 | -5.33 | -5.97 | -5.60 | -5.25 | -5.26 | -5.38 | -5.69 | -5.69 | cytotoxicity log GI50 (NCI-H460): -5.76 M; GI50 (human tumor cell lines): 1 to 10 µM; cytotoxicity log GI50 (MOLT-4 [6]): -5.50 M; cytotoxicity log GI50 (SR): -5.88 M; cytotoxicity log GI50 (KM 20L2): -5.09 M; cytotoxicity log GI50 (HT 29): -5.39 M; cytotoxicity log GI50 (OVCAR-8): -5.05 M; cytotoxicity log GI50 (SNB-78): -5.03 M; cytotoxicity log GI50 (M19-MEL): -4.93 M; cytotoxicity log GI50 (U 251): -5.46 M
5 | CC(=O)NC1=C(NC(C)(C)C)C(=O)c2ccccc2C1=O [Compound 32] | -4.86 | – | -4.80 | -4.85 | – | -4.86 | – | – | -4.77 | – | -4.81 | -5.65 | -5.63 | -4.76 | -4.80 | -5.47 | -4.82 | -4.80 | -5.14 | -4.78 | cytotoxicity log GI50 (RPMI-8226): -4.93 M; cytotoxicity log GI50 (NCI-H266): -4.84 M; cytotoxicity log GI50 (HOP-18): -4.83 M; cytotoxicity log GI50 (MOLT-4 [6]): -5.19 M; cytotoxicity log GI50 (XF-498): -4.95 M; cytotoxicity log GI50 (M19-MEL): -4.81 M; cytotoxicity log GI50 (CAKI-1): -4.79 M
